Legend:
DENV-2 16681 strain = assay: DENV-2 antiviral assay (eGFP-labelled virus in Vero cells); assay type: cell-based, Dengue virus; settings: DENV-2 16681 eGFP, MOI 0.5, 3 days
Procedure: The antiviral activity of all the compounds of the invention was tested against DENV-2 16681 strain which was labeled with enhanced green fluorescent protein (eGPF). The culture medium consists of minimal essential medium supplemented with 2% of heat-inactivated fetal calf serum, 0.04% gentamycin (50 mg/mL) and 2 mM of L-glutamine. Vero cells, obtained from ECACC, were suspended in culture medium and 25 μL was added to 384-well plates (2500 cells/well), which already contain the antiviral compounds. Typically, these plates contain a 4-fold serial dilution of 9 dilution steps of the test compound at 200 times the final concentration in 100% DMSO (200 nL). In addition, each compound concentration is tested in quadruplicate (final concentration range: 25 μM-0.00038 μM). Finally, each plate contains wells which are assigned as virus controls (containing cells and virus in the absence of compound), cell controls (containing cells in the absence of virus and compound) and medium controls (containing medium in the absence of cells, virus and compounds). To the wells assigned as medium control, 25 μL of culture medium was added instead of Vero cells. Once the cells were added to the plates, the plates were incubated for 30 minutes at room temperature to allow the cells to distribute evenly within the wells. Next, the plates were incubated in a fully humidified incubator (37° C., 5% CO2) until the next day. Then, DENV-2 strain 16681, labeled with eGFP, was added at a multiplicity of infection (MOI) of 0.5. Therefore, 15 μL of virus suspension was added to all the wells containing test compound and to the wells assigned as virus control. In parallel, 15 μL of culture medium was added to the medium and cell controls. Next, the plates were incubated for 3 days in a fully humidified incubator (37° C., 5% CO2). At the day of the read out, the eGFP fluorescence was measured using an automated fluorescence microscope at 488 nm (blue laser). Using an in-house LIMS system, inhibition dose response curves for each compound were calculated and the half maximal effective concentration (EC50) was determined. Therefore, the percent inhibition (I) for every test concentration is calculated using the following formula: I=100*(ST−SCC)/(SVC−SCC); ST, SCC and SVC are the amount of eGFP signal in the test compound, cell control and virus control wells, respectively. The EC50 represents the concentration of a compound at which the virus replication is inhibited with 50%, as measured by a 50% reduction of the eGFP fluorescent intensity compared to the virus control. The EC50 is calculated using linear interpolation (Table 1).

in vitro = assay type: cell-based; settings: African green monkey, CC50
Procedure: Potential cytotoxic effects of the compounds were evaluated in uninfected Vero cells. Cells were seeded at 4×10^4 cells/well in a 96-well plate in the presence of two-, three- or five-fold serial dilutions (ranging from 50 μg/mL-0.0038 μg/mL, 50 μg/mL-0.0076 μg/mL, and 50 μg/mL-0.00013 μg/mL, respectively) of compound and incubated for 4 to 7 days. Culture medium was discarded and 100 μL 3-(4,5-dimethylthiazol-2-yl)-5-(3-carboxymethoxyphenyl)-2-(4-sulfophenyl)-2H-tetrazolium/phenazinemethosulfate (MTS/PMS; Promega, Leiden, The Netherlands) in PBS was added to each well. Following a 2-hour incubation period at 37° C., the optical density was determined at 498 nm. Cytotoxic activity was calculated using the following formula: % cell viability=100×(ODCompound/ODCC), where ODcompound and ODCC correspond to the optical density at 498 nm of the uninfected cell cultures treated with compound and that of uninfected, untreated cell cultures, respectively. The 50% cytotoxic concentration (i.e., the concentration that reduces the total cell number with 50%; CC50) was calculated using linear interpolation (Tables 7 and 8).

Row | SMILES | EC50 (DENV-2 16681 strain) | CC50 (in vitro)
1 | COc1cc(NC(C(=O)c2c[nH]c3cc(F)ccc23)c2ccc(F)cc2OC)cc(OCCO)c1 (single isomer, unassigned) [Compound 1A, 1-(6-fluoro-1H-indol-3-yl)-2-(4-fluoro-2-methoxyphenyl)-2-((3-(2-hydroxyethoxy)-5-methoxyphenyl)amino)ethanone] | 0.0038 µM | 13 µM
2 | COc1cc(NC(C(=O)c2c[nH]c3c(C)c(OC)ccc23)c2ccc(F)cc2OC)cc(OCCO)c1 (single isomer, unassigned) [Compound 11A, 2-(4-fluoro-2-methoxyphenyl)-2-((3-(2-hydroxyethoxy)-5-methoxyphenyl)amino)-1-(6-methoxy-7-methyl-1H-indol-3-yl)ethanone] | 0.00081 µM | 11 µM
3 | COc1cc(NC(C(=O)c2c[nH]c3cc(Cl)ccc23)c2ccc(F)cc2OC)cc(OCCO)c1 (single isomer, unassigned) [Compound 4A, 1-(6-chloro-1H-indol-3-yl)-2-(4-fluoro-2-methoxyphenyl)-2-((3-(2-hydroxyethoxy)-5-methoxyphenyl)amino)ethanone] | 0.0016 µM | 9.7 µM
4 | COc1cc(NC(C(=O)c2c[nH]c3c(F)cc(C)cc23)c2ccc(F)cc2OC)cc(OCCO)c1 (single isomer, unassigned) [Compound 12B, 2-(4-fluoro-2-methoxyphenyl)-1-(7-fluoro-5-methyl-1H-indol-3-yl)-2-((3-(2-hydroxyethoxy)-5-methoxyphenyl)amino)ethanone] | 0.0051 µM | 9.4 µM
5 | COc1cc(NC(C(=O)c2c[nH]c3c(C)cc(F)cc23)c2ccc(F)cc2OC)cc(OCCO)c1 (single isomer, unassigned) [Compound 9B, 2-(4-fluoro-2-methoxyphenyl)-1-(5-fluoro-7-methyl-1H-indol-3-yl)-2-((3-(2-hydroxyethoxy)-5-methoxyphenyl)amino)ethanone] | 0.0034 µM | 8.8 µM
6 | COc1cc(NC(C(=O)c2c[nH]c3c(Cl)c(OC)ccc23)c2ccc(F)cc2OC)cc(OCCO)c1 (single isomer, unassigned) [Compound 8A, 1-(7-chloro-6-methoxy-1H-indol-3-yl)-2-(4-fluoro-2-methoxyphenyl)-2-((3-(2-hydroxyethoxy)-5-methoxyphenyl)amino)ethanone] | 0.001 µM | 9.6 µM
7 | COc1cc(NC(C(=O)c2c[nH]c3cc(OC)c(F)cc23)c2ccc(F)cc2OC)cc(OCCO)c1 (single isomer, unassigned) [Compound 7A, 2-(4-fluoro-2-methoxyphenyl)-1-(5-fluoro-6-methoxy-1H-indol-3-yl)-2-((3-(2-hydroxyethoxy)-5-methoxyphenyl)amino)ethanone] | 0.0046 µM | 16 µM
8 | COc1cc(NC(C(=O)c2c[nH]c3cc(F)c(F)cc23)c2ccc(F)cc2OC)cc(OCCO)c1 (single isomer, unassigned) [Compound 10B, 1-(5,6-difluoro-1H-indol-3-yl)-2-(4-fluoro-2-methoxy-phenyl)-2-((3-(2-hydroxyethoxy)-5-methoxyphenyl)amino)ethanone] | 0.0027 µM | 7.3 µM
9 | COc1cc(NC(C(=O)c2c[nH]c3cc(OC)c(C)cc23)c2ccc(F)cc2OC)cc(OCCO)c1 (single isomer, unassigned) [Compound 6A, 2-(4-fluoro-2-methoxyphenyl)-2-((3-(2-hydroxyethoxy)-5-methoxyphenyl)amino)-1-(6-methoxy-5-methyl-1H-indol-3-yl)ethanone] | 0.0027 µM | 9.7 µM
10 | COc1cc(NC(C(=O)c2c[nH]c3c(F)c(F)ccc23)c2ccc(F)cc2OC)cc(OCCO)c1 (single isomer, unassigned) [Compound 5B, 1-(6,7-difluoro-1H-indol-3-yl)-2-(4-fluoro-2-methoxyphenyl)-2-((3-(2-hydroxyethoxy)-5-methoxyphenyl)amino)ethanone] | 0.0025 µM | 12 µM
11 | COc1cc(NC(C(=O)c2c[nH]c3c(C)c(Cl)ccc23)c2ccc(F)cc2OC)cc(OCCO)c1 (single isomer, unassigned) [Compound 3A, 1-(6-chloro-7-methyl-1H-indol-3-yl)-2-(4-fluoro-2-methoxyphenyl)-2-((3-(2-hydroxyethoxy)-5-methoxyphenyl)amino)ethanone] | 0.00077 µM | 7.6 µM
12 | COc1cc(NC(C(=O)c2c[nH]c3c(C)c(F)ccc23)c2ccc(F)cc2OC)cc(OCCO)c1 (single isomer, unassigned) [Compound 2B, 2-(4-fluoro-2-methoxyphenyl)-1-(6-fluoro-7-methyl-1H-indol-3-yl)-2-((3-(2-hydroxyethoxy)-5-methoxyphenyl)amino)ethanone] | 0.0022 µM | 9.2 µM
